Converted amounts (≈) assume the structure as drawn.
Legend:
[1] = system: Staphylococcus aureus; experiment: Potentiation of oxacillin against methicillin resistant Staphylococcus aureus OM623 assessed as fold increase in oxacillin activity; type: functional
[2] = system: Staphylococcus aureus; experiment: Potentiation of oxacillin against methicillin resistant Staphylococcus aureus OM481 assessed as fold increase in oxacillin activity; type: functional
[3] = system: Staphylococcus aureus; experiment: Potentiation of oxacillin against methicillin resistant Staphylococcus aureus OM505 assessed as fold increase in oxacillin activity; type: functional
[4] = system: Staphylococcus aureus; experiment: Potentiation of oxacillin against methicillin resistant Staphylococcus aureus OM584 assessed as fold increase in oxacillin activity; type: functional
[5] = system: Staphylococcus aureus; experiment: Antibacterial activity against methicillin resistant Staphylococcus aureus mp 1; type: functional
[6] = system: Staphylococcus aureus; experiment: Antibacterial activity against methicillin resistant Staphylococcus aureus ATCC 43300; type: functional
[7] = target: T1, MecA (Staphylococcus aureus, UniProt Q7DHH4); experiment: Binding affinity to Staphylococcus aureus ATCC 43300 PBP2a
T1 sequence (Q7DHH4 whole entry): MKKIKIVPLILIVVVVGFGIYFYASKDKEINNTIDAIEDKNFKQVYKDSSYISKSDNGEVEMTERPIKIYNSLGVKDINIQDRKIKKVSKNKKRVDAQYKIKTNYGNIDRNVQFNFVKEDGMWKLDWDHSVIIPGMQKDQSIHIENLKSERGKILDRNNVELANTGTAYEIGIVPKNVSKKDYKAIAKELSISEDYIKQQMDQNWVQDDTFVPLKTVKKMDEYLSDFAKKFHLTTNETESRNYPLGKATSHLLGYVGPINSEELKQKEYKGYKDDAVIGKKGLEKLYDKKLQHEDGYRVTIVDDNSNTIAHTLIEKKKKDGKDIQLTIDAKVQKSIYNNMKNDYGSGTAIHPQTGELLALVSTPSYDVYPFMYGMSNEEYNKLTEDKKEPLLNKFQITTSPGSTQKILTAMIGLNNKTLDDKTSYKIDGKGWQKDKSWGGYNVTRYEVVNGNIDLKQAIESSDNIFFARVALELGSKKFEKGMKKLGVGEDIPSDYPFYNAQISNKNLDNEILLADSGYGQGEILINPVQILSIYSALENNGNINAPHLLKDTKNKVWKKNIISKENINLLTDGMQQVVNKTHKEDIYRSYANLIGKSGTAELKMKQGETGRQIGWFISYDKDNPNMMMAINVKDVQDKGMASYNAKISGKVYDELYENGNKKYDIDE

[8] = system: Staphylococcus aureus; experiment: Antibacterial activity against methicillin resistant Staphylococcus aureus; type: functional
[9] = target: T1, MecA; experiment: Displacement of [3H]-penicillin from Staphylococcus aureus PBP2a
[10] = target: T1, MecA; experiment: Binding affinity to methicillin resistant Staphylococcus aureus PBP2a by MST method
[11] = target: T2, Penicillin-binding protein 2x (Streptococcus pneumoniae serotype 4 (strain ATCC BAA-334 / TIGR4), UniProt P14677); experiment: Binding affinity to Streptococcus pneumoniae PBP2x
T2 sequence (P14677 whole entry): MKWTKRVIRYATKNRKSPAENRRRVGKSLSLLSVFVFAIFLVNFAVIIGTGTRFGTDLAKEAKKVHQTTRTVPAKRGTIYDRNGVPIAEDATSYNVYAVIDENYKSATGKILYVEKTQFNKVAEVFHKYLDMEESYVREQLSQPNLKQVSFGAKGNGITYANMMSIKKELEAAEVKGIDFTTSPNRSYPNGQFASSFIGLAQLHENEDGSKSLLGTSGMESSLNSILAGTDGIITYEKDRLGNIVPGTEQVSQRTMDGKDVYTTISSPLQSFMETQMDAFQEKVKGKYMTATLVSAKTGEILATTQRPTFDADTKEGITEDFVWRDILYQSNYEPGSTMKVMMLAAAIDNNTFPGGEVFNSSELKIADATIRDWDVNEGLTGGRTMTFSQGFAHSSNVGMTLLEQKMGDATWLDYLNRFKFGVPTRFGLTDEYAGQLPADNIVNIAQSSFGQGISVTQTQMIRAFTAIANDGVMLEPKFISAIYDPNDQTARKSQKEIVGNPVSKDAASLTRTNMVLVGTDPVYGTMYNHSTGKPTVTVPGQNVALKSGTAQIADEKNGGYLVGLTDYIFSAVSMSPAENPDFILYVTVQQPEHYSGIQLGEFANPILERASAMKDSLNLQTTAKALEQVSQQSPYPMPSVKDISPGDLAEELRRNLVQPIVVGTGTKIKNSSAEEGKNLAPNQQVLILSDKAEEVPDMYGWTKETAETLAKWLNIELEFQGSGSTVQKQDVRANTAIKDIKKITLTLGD

[12] = system: Staphylococcus aureus; experiment: Antibacterial activity against methicillin resistant Staphylococcus aureus TMHS-5006; type: functional
[13] = system: Staphylococcus aureus; experiment: Antibacterial activity against methicillin resistant Staphylococcus aureus 13101; type: functional
[14] = system: Staphylococcus aureus; experiment: Antibacterial activity against methicillin resistant Staphylococcus aureus 4977; type: functional
[15] = Binding affinity to methicillin sensitive Staphylococcus aureus PBP3
[16] = system: Staphylococcus aureus; experiment: Antibacterial activity against methicillin resistant Staphylococcus aureus TMHS-3125; type: functional
[17] = Binding affinity to methicillin sensitive Staphylococcus aureus PBP4
[18] = system: Staphylococcus aureus; experiment: Antibacterial activity against methicillin resistant Staphylococcus aureus TMHS-5007; type: functional
[19] = Binding affinity to methicillin sensitive Staphylococcus aureus PBP2
[20] = target: T3, Penicillin-binding protein 1 (Staphylococcus aureus, UniProt Q53725); experiment: Binding affinity to methicillin sensitive Staphylococcus aureus PBP1
T3 sequence (Q53725 whole entry): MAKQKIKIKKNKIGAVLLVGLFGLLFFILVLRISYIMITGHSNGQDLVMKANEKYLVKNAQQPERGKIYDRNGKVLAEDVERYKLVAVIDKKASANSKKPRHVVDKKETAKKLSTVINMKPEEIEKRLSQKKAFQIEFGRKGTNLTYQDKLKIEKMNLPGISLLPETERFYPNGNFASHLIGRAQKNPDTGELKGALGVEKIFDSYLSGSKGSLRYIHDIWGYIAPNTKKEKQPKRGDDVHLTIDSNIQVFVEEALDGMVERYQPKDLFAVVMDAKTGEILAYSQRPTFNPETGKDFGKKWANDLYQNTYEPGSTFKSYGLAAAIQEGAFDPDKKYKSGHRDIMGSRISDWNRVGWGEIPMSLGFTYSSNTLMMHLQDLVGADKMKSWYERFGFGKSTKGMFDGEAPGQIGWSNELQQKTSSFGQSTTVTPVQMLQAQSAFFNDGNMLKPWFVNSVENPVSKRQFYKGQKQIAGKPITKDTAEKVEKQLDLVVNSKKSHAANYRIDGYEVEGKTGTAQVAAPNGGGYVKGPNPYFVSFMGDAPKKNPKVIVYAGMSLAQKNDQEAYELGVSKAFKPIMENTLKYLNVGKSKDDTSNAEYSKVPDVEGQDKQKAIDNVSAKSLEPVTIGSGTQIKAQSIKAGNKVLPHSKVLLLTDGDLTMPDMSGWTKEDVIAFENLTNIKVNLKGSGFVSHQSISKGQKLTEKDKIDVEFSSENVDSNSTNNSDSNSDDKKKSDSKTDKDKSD

[21] = target: T1, MecA; experiment: Binding affinity to methicillin resistant Staphylococcus aureus PBP2a

With `O=C(O[C@H]1[C@@H]2OC(=O)c3cc(O)c(O)c(O)c3-c3c(cc(O)c(O)c3O)C(=O)OC[C@H]2OC(O)[C@@H]1OC(=O)c1cc(O)c(O)c(O)c1)c1cc(O)c(O)c(O)c1` (some centres undefined) the “fold change (FC)” value [1] was 100, the “fold change (FC)” value [2] was 100 and the “fold change (FC)” value [3] was 100. For the same compound, the “fold change (FC)” value [4] was 100.
In the case of `CCCOc1cccc(C(=O)Nc2ccccc2C(=O)O)c1`, the MIC [5] is reported as 512 µg/mL (≈ 1710 µM), the MIC [6] is reported as 512 µg/mL (≈ 1710 µM) and the IC50 [7] is reported as 910 µM.
With `C[C@@H](O)[C@H]1C(=O)N2C(C(=O)[O-])=C(c3ccc4c(c3)-c3ccc(C[n+]5ccn(C)c5)cc3C4=O)[C@H](C)[C@H]12` the MIC [8] was 16 µg/mL (≈ 33.1 µM) and the IC50 [9] was 2.48 µM.
Compound `CCCOc1ccc2cc(C(=O)Nc3ccc(Br)cc3C(=O)O)ccc2c1` has an MIC [5] of 128 µg/mL (≈ 299 µM), an MIC [6] of 128 µg/mL (≈ 299 µM) and an IC50 [7] of 210 µM.
Work on `COC(=O)C1=C[C@]2(C)C[C@@]34CC[C@@H]5[C@H](C=CC(=O)C5(C)C)[C@]35OC[C@]14[C@](C)(CC2=O)O5` yielded a Kd [10] of 18.4 µM and an MIC [8] of 32 µg/mL (≈ 75 µM).
With `CCCOc1cccc(C(=O)Nc2ccc(C)cc2C(=O)O)c1` the MIC [5] was 256 µg/mL (≈ 817 µM), the MIC [6] was 256 µg/mL (≈ 817 µM) and the IC50 [7] was 680 µM.
In the case of `CCCOc1cccc(C(=O)Nc2ccc(Br)cc2C(=O)O)c1`, the MIC [5] is reported as 32 µg/mL (≈ 84.6 µM), the MIC [6] is reported as 32 µg/mL (≈ 84.6 µM) and the IC50 [7] is reported as 230 µM.
In the case of `CCCCOc1ccc2cc(S(=O)(=O)Nc3ccccc3C(=O)O)ccc2c1`, the MIC [5] is reported as 32 µg/mL (≈ 80.1 µM), the MIC [6] is reported as 32 µg/mL (≈ 80.1 µM) and the IC50 [11] is reported as 391 µM. The IC50 [7] was 97 µM.
In the case of `CCO/N=C(\C(=O)N[C@@H]1C(=O)N2C(C(=O)[O-])=C(Sc3nc(-c4cc[n+](C)cc4)cs3)CS[C@H]12)c1nsc(N)n1` [CEFTAROLINE], the MIC [12] is reported as > 32 µg/mL, the MIC [13] is reported as 2 µg/mL (≈ 3.31 µM) and the MIC [14] is reported as 2 µg/mL (≈ 3.31 µM). The IC50 [15] was 0.1 µg/mL (≈ 0.165 µM), the MIC [16] was > 32 µg/mL and the IC50 [17] was > 1 µg/mL. For the same compound, the MIC [18] was > 32 µg/mL, the IC50 [19] was 0.1 µg/mL (≈ 0.165 µM) and the IC50 [20] was 0.165 µM. The IC50 [21] was 0.265 µM.
Compound `Nc1nc(/C(=N/O)C(=O)N[C@@H]2C(=O)N3C(C(=O)O)=C(/C=C4\CCN([C@@H]5CCNC5)C4=O)CS[C@H]23)ns1` [CEFTOBIPROLE] has an MIC [8] of 0.5 µg/mL (≈ 0.935 µM).
With `O=C(O[C@@H]1O[C@@H]2COC(=O)c3cc(O)c(O)c(O)c3-c3c(cc(O)c(O)c3O)C(=O)O[C@H]([C@H]1O)[C@@H]2O)c1cc(O)c(O)c(O)c1` [CORILAGIN] the “fold change (FC)” value [1] was 100, the “fold change (FC)” value [2] was 100 and the “fold change (FC)” value [3] was 100. The “fold change (FC)” value [4] was 100.

Reference: ChEMBL document CHEMBL5244239, “Penicillin binding protein 2a: An overview and a medicinal chemistry perspective” (Eur J Med Chem, 2020)
